Laboratory results as given in patent publication US7960606B2, “Mouse model of chronic heart failure and coronary atherosclerosis regression” (The J. David Gladstone Institutes, priority 2006, dated 2011).

Assays:
[1] = system: SR-BI knockout females; details: administered during the breeding protocol; Miettinen et al. 2001; cited from earlier work
[2] = system: Apoe^h/hSRB1^−/−Mx1-Cre mice; assay: Survival of diet-induced heart attacks in Apoe^h/hSRB1^−/−Mx1-Cre mice after pI-pC injection and switch to low fat diet; format: in vivo
Description: The animal model was created by breeding Apoe^h/hSRB1^−/− mice to mice that carry the inducible Mx1-Cre transgene, resulting in Apoe^h/hSRB1^−/−Mx1-Cre mice that are sensitive to diet-induced coronary atherosclerosis and develop fatal myocardial infarctions within 35 days of dietary challenge. However, this new strain of mice can survive its heart attacks if switched to a normal low fat diet and given a single intrapentoneal injection of polyinosinic polycytidylic ribonucleic acid (pI-pC). […] Surviving Apoe^h/hSRB1^−/−MX1-Cre mice can then live for many months. Upon histological analysis of their heart, there is evidence of myocardial infarction and ventricular enlargement. Consequently, the surviving Apoe^h/hSRB1^−/−Mx1-Cre mice are a unique murine model of chronic heart failure that simulates chronic heart failure in humans who survive heart attacks caused by coronary atherosclerosis.
10 Apoe^h/hSRB1^−/−Mx1-Cre mice were fed a high cholesterol diet for 30 days. On day 31, they were injected with pI-pC, and then switched to a low fat diet. Of the 10 mice, 6 survived for two months. At that time point, their hearts were harvested and heart function was assessed in 4 of the 6 mice by Langendorf hemodynamic measurements.

CC(C)(Sc1cc(C(C)(C)C)c(O)c(C(C)(C)C)c1)Sc1cc(C(C)(C)C)c(O)c(C(C)(C)C)c1 [probucol]
fertility in the SR-BI knockout females [1]: restore fertility

polyinosinic polycytidylic ribonucleic acid [pI-pC]
mice surviving for two months (of 10) ([2]; high cholesterol diet for 30 days, pI-pC injected on day 31, then low fat diet, 10 mice): 6
blood cholesterol levels ([2]; single intraperitoneal injection, activates Mx1-Cre gene, restores normal Arg-61 apoE levels in blood): rapidly and permanently lowers blood cholesterol levels in a few days
